From patent US20070128181A1, “Methods of Preventing Morbidity and Mortality by Perioperative Administration of a Blood Clotting Inhibitor” (priority 2002, published 2007) come the findings set out here.

This data set has as its system patients with medically-refractory coronary artery disease scheduled for coronary artery bypass surgery. Kind of data set: Prospective, longitudinal study of aspirin use within 48 hours of revascularization in coronary artery bypass surgery patients. In kind it is in vivo. The text has this: A prospective, longitudinal study enrolled 5,436 patients. Eligible patients included those with medically-refractory coronary artery disease and scheduled for coronary artery bypass surgery at 70 medical institutions among 17 countries in North and South America, Europe, the Middle East and Asia. At each institution, 100 patients were to be prospectively enrolled according to a systematic sampling scheme that allowed a random sampling of patients at each institution among all patients undergoing surgery at that institution.
Of the 5,436 patients enrolled, 5,065 patients completed the study and were included in the final analysis. Of the 371 patients excluded, 32 were excluded due to patient withdrawal, 2 due to death prior to surgery, 97 due to cancellation or rescheduling of surgery, 132 patients due to change in procedure, 11 due to inadvertent enrollment in another study, 86 due to incomplete data and 11 due to incomplete blood sampling, shipping or storage.
Aspirin was administered in doses of 160 mg to 650 mg to 3,001 patients within 48 hours of revascularization. All potential side-effects associated with aspirin use were recorded daily by blinded investigators. Independent investigators coded all medications received-including pro- and anti-thrombotic and pro- and anti-coagulant medications, and blood products—by day throughout hospitalization, as well as at admission and at discharge, or until death.
For each enrolled patient, approximately 7,500 fields of data were collected throughout the patient's index hospitalization, from admission until discharge, by independent investigators; treated physicians were blinded to all research data. Data included demographic, historical, clinical, laboratory, eloectrocardiographic, specialized testing, resource utilization, and adverse outcomes. Following last patient enrollment, all data fields for each patient were queried centrally for completeness and accuracy, with all changes documented prior to database closure.
All outcomes were prespecified, defined by protocol, and discerned by investigators blinded to treatment group. Fatal and non-fatal outcomes were classified as cardiac (myocardial infarction, congestive heart failure and cardiac death), cerebral (stroke, encephalopathy and cerebral death), renal (dysfunction, failure and renal death), gastrointestinal (ischemia, infarction and GI death), or other (such as infectious, pulmonary). The diagnosis of myocardial infarction required either: the development of new Q waves (as defined by Minnesota Code 1-1-1I or 1I-2-7); or new persistent S T-segment or T-wave changes (Minnesota Code 4-1,4-2, 5-1 or 5-2) associated with an elevation of CK-MB isoenzyme values; or autopsy evidence of acute myocardial infarction. The diagnosis of heart failure required either: the use of a ventricular assist device; or the use of continuous inotropic support for at least 24 hours; or autopsy evidence of heart failure. Cerebral outcomes were classified as: clinically diagnosed stroke or encephalopathy; or CT, MRI or autopsy evidence of a focal or global defect. Renal dysfunction was defined as: a serum creatinine ≧177 μmol/L accompanied by a ≧62 μmol/L rise over baseline; and renal failure was defined as dysfunction requiring dialysis, or autopsy evidence of renal failure. Gastrointestinal ischemia was defined as abdominal pain diagnosed as intestinal ischemia, or detected at exploration; infarction required bowel resection, or autopsy evidence of intestinal infarction.
The risk of death for aspirin taking versus control populations were compared using the Chi-Square test. Individual ischemic outcomes involving the heart, brain, kidney and gastrointestinal tract, and combined ischemic outcomes were compared using Fisher's Exact Test or the Chi-Square test as appropriate. Odds ratios and the 95% confidence intervals are presented with associated P values. […]

In the case of `CC(=O)Oc1ccccc1C(=O)O` [Aspirin, aspirin], the “risks of dying and ischemic complications associated with platelet transfusion after reperfusion and prophylactic anti-fibrinolytics” value (FIG. 3A) is given as “substantially reduced, but did not eliminate these risks”. For the same compound, the “risk of dying during hospitalization” value (aspirin within 48 hours of revascularization, v. 5.9% without aspirin, P<0.0001) is 1.4%. In addition, the “risk of non-fatal ischemic complications associated with the heart, brain, kidney or gastrointestinal tract” value (aspirin within 48 hours of revascularization, v. 24.5% without aspirin, P<0.0001) turned out to be 13.6%. In addition, the “Odds Ratio, Multivariate Analyses for Morality” value (from here on “Odds Ratio”) (discontinuation of use (Table 3B)) is on record as 1.04. Further, the “survival over the first 30 postsurgical days” value (early aspirin use, FIG. 2) is “Improved survival”. This compound also came in with a reduction in mortality (first use of aspirin 48 hours after surgery, not significant, P=0.534) of 15%. Besides, under “human, in vivo”, the “Gastritis, % of patients” value stood at 0.33%; the “Hemorrhage: Gastrointestinal tract bleeding, % of patients” value is reported as 1.1%; the “Hemorrhage: Other Source of Bleeding, % of patients” value is reported as 1.7%; the “Impaired Wound Healing, % of patients” value is on record as 4.5%. Where the note is “human, in vivo”, the “Infection, % of patients” value was 8.4% and the “Return to operating room for bleeding, % of patients” value is on record as 1.9%. Also, for the setting “use at admission (Table 3B)”, the “Odds Ratio” value amounted to 1.46. Also, the “Odds Ratio” value (use following revascularization, 95% CI 0.19-0.40, P <0.0001) was 0.27. The “Odds Ratio” value (use prior to surgery (Table 3B)) was 0.77. The compound further gave a Length of hospitalization (versus 11.32±9.44 without aspirin, P<0.0001) of 9.57±7.14. Under “versus 25 patients in the control group”, the “patients who died within 12 hours of surgery” value is “none”. The “patients who died within 48 hours of surgery” value (versus 42 patients from the control group) is on record as “one”.

For `CC(=O)CC(c1ccccc1)c1c(O)c2ccccc2oc1=O` (stereo not shown) [Warfarin/coumadin, warfarin], under “use over the week prior to revascularization, 95% CI 1.23-3.25, P 0.005”, the “Odds Ratio” value was determined as 2.00.
